These results are taken from ChEMBL document CHEMBL1177707 (J Med Chem, 2010).

SMILES strings stand for the structures.

The nature of experiment [1]: Inhibition of N-terminal His-tagged Mycobacterium tuberculosis H37Rv IMPDH. To be noted: read-out: Ki(app).
Experiment [2] concerns the target Inosine-5'-monophosphate dehydrogenase 2 (Homo sapiens, UniProt P12268). As to the kind of experiment: Inhibition of human IMPDH2.
For experiment [3], the target named is Inosine-5'-monophosphate dehydrogenase 1 (Homo sapiens, UniProt P20839). As to the kind of experiment: Inhibition of human IMPDH1.
Inosine-5'-monophosphate dehydrogenase 1, sequence (P20839 whole entry): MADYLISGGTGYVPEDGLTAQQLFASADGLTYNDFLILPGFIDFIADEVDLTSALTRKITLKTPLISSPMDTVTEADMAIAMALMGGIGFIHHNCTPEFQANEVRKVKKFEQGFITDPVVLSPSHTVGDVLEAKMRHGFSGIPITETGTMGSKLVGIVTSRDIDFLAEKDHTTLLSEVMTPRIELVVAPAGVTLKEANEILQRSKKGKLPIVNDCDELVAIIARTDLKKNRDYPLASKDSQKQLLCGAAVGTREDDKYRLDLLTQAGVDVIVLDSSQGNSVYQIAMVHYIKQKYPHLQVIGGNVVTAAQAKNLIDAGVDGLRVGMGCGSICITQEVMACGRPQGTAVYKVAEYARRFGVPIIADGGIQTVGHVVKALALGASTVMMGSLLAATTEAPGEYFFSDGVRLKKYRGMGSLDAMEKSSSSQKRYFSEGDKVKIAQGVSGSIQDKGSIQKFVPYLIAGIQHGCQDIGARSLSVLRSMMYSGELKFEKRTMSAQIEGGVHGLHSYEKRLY

Turning to `CCc1nc(N)c2ncn([C@@H]3O[C@H](CNS(=O)(=O)CS(=O)(=O)NCCc4c(O)c5c(c(C)c4OC)COC5=O)[C@@H](O)[C@H]3O)c2n1`, in experiment [1], the Ki was over 100 µM.

Regarding `COc1c(C)c2c(c(O)c1CCNCc1cn(C[C@H]3O[C@@H](n4cnc5c(N)ncnc54)[C@H](O)[C@@H]3O)nn1)C(=O)OC2`, the values for the Ki in experiment [1], in experiment [2] (read-out: Ki) and in experiment [3] (read-out: Ki) were over 100 µM, 2200 nM and 14000 nM, respectively.

On to `COc1c(C)c2c(c(O)c1C/C=C(\C)CCC(=O)O)C(=O)OC2` [MYCOPHENOLIC ACID], for which, in experiment [1], the Ki was determined as 62 µM.

As to `COc1c(C)c2c(c(O)c1CCOP(=O)(O)CP(=O)(O)OC[C@H]1O[C@@H](n3cnc4c(N)nc(-c5ccccc5)nc43)[C@H](O)[C@@H]1O)C(=O)OC2`, in experiment [1], the Ki is over 100 µM.

Regarding `COc1c(C)c2c(c(O)c1C/C=C(\C)COP(=O)(O)CP(=O)(O)OC[C@H]1O[C@@H](n3cnc4c(N)ncnc43)[C@H](O)[C@@H]1O)C(=O)OC2`, the Ki was over 100 µM in experiment [1], 380 nM in experiment [2] (read-out: Ki(app)) and 520 nM in experiment [3] (read-out: Ki(app)).

Regarding `COc1c(C)c2c(c(O)c1C/C=C(\C)Cn1cc(COC[C@H]3O[C@@H](n4cnc5c(N)ncnc54)[C@H](O)[C@@H]3O)nn1)C(=O)OC2`, in experiment [3] (read-out: Ki), the Ki came out at 70 nM.

Consider `COc1c(C)c2c(c(O)c1CCNS(=O)(=O)CS(=O)(=O)NC[C@H]1O[C@@H](n3cnc4c(N)nc(-c5ccccc5)nc43)[C@H](O)[C@@H]1O)C(=O)OC2`, for which, in experiment [1], the Ki is over 100 µM.

In the case of `C#Cc1nc(N)c2ncn([C@@H]3O[C@H](CNS(=O)(=O)CS(=O)(=O)NCCc4c(O)c5c(c(C)c4OC)COC5=O)[C@@H](O)[C@H]3O)c2n1`, in experiment [1], the Ki was over 100 µM.

As for `COc1c(C)c2c(c(O)c1CCn1cc(COC[C@H]3O[C@@H](n4cnc5c(N)ncnc54)[C@H](O)[C@@H]3O)nn1)C(=O)OC2`, the Ki in experiment [1] is over 100 µM; in experiment [2] (read-out: Ki), 200 nM; in experiment [3] (read-out: Ki), 1500 nM.
